From patent US8809341B2, “2,4-pyrimidinediamine compounds and uses as anti-proliferative agents” (Rigel Pharmaceuticals, Inc., priority 2003, dated 2014)
pIC50: −log10 of the molar value. Values belong to the compound of their own block, whether it stands above or below them.

Legend:
[1] = test system: H1299 cells; assay: in vitro antiproliferation assay, H1299 (lung); type: cell-based
Summary of the method: (§1)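 Standard in vitro antiproliferation assays on tumour cell lines, including A549 and H1299 (both lung); IC50 values determined.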

[2] = test system: A549 cells; assay: in vitro antiproliferation assay, A549 (lung); type: cell-based
Summary of the method: as §1

[3] = IC50 class against H1299 (lung) tumor cells
[4] = IC50 class against A549 (lung) tumor cells
[5] = H1299 (lung) cells, in vitro antiproliferation
[6] = A549 (lung) cells, in vitro antiproliferation
[7] = in vitro antiproliferation, H1299 (lung) cells, Table 4, compounds with no designated stereochemistry tested as racemate
[8] = in vitro antiproliferation, A549 (lung) cells, Table 4, compounds with no designated stereochemistry tested as racemate
[9] = Homo sapiens, NCI-H1299, H1299 (lung) cells
[10] = Homo sapiens, A549 (lung) cells
[11] = H1299 (lung) cells, antiproliferation
[12] = A549 (lung) cells, antiproliferation

SMILES: CCOC(=O)N1CCC(Nc2nc(Nc3ccc(N4CCN(C)CC4)nc3)ncc2F)CC1 [compound 190]
pIC50 [1, 3]: ≥ 4.70
pIC50 [2, 4]: ≥ 4.70

SMILES: CN(C)c1ncc(F)c(N(C)c2ccc3c(c2)OCCO3)n1 [compound 1039]
pIC50 [1, 3]: ≥ 4.70
pIC50 [2, 4]: ≥ 4.70

SMILES: COC(=O)c1cc2cc(Nc3ncc(F)c(N(C)c4ccc(OC)c(Cl)c4)n3)ccc2o1 [compound 671]
pIC50 ([1]; Table 7, in vitro antiproliferation, H1299 (lung) cells): < 4.70
pIC50 ([2]; Table 7, in vitro antiproliferation, A549 (lung) cells): < 4.70

SMILES: Cc1ccc(CNc2ncc(F)c(Nc3ccc4c(c3)OCCO4)n2)cc1Cl [compound 1146]
pIC50 [1, 9]: < 4.70
pIC50 [2, 10]: ≥ 4.70

SMILES: CC(C)Nc1nc(Nc2ccc(N3CCN(C)CC3)c(C(F)(F)F)c2)ncc1F [compound 218]
pIC50 [1, 3]: ≥ 4.70
pIC50 [2, 4]: ≥ 4.70

SMILES: CN1CCN(c2ccc(Nc3ncc(F)c(NC4CC(C)(C)N(C)C(C)(C)C4)n3)cc2Cl)CC1 [compound 180]
pIC50 [1, 3]: ≥ 4.70
pIC50 [2, 4]: ≥ 4.70

SMILES: C=CCNc1ncc(F)c(N(C)c2ccc3c(c2)OCCO3)n1 [compound 1043]
pIC50 [1, 3]: ≥ 4.70
pIC50 [2, 4]: ≥ 4.70

SMILES: O=C1COc2ccc(Nc3nc(Nc4cccc(-c5cnco5)c4)ncc3F)cc2N1 [compound 239]
pIC50 [1, 7]: ≥ 4.70
pIC50 [2, 8]: < 4.70

SMILES: COc1cc(Nc2nc(Nc3cc(CO)cc(CO)c3)ncc2F)cc(C(F)(F)F)c1 [compound 824]
pIC50 [1, 5]: > 4.70
pIC50 [2, 6]: ≥ 4.70

SMILES: COc1cc(Nc2nc(Nc3cc(CO)cc(CO)c3)ncc2F)cc(OC)c1 [compound 842]
pIC50 [1, 5]: ≥ 4.70
pIC50 [2, 6]: ≥ 4.70

SMILES: NC(=O)c1ccc(Nc2ncc(F)c(NC3CCCC3)n2)cc1 [compound 175]
pIC50 [1, 3]: < 4.70
pIC50 [2, 4]: ≥ 4.70

SMILES: CN1CCN(c2cccc(Nc3ncc(F)c(NC4CCCC4)n3)c2)CC1 [compound 137]
pIC50 [1, 3]: ≥ 4.70
pIC50 [2, 4]: ≥ 4.70

SMILES: COc1cc(Nc2ncc(F)c(Nc3cc(C)cc(C)c3)n2)cc(C(F)(F)F)c1 [compound 815]
pIC50 [1, 5]: ≥ 4.70
pIC50 [2, 6]: ≥ 4.70

SMILES: CN(c1ccc2c(c1)OCCO2)c1nc(N(CCO)CCO)ncc1F [compound 1042]
pIC50 [1, 3]: ≥ 4.70
pIC50 [2, 4]: < 4.70

SMILES: CN1C(=O)COc2ccc(Nc3nc(Nc4cccc(O)c4)ncc3F)cc21 [compound 255]
pIC50 [1, 7]: ≥ 4.70
pIC50 [2, 8]: ≥ 4.70

SMILES: COc1cc(Nc2nc(Nc3ccc4c(cnn4C(C)(C)CC4CCCCC4)c3)ncc2F)ccc1F [compound 1093]
pIC50 ([1]; H1299 (lung) cells): ≥ 4.70
pIC50 ([2]; A549 (lung) cells): ≥ 4.70

SMILES: COc1cc(Nc2ncc(F)c(Nc3cc(C)cc(C)c3)n2)cc(OC)c1OC [compound 895]
pIC50 [1, 11]: ≥ 4.70
pIC50 [2, 12]: ≥ 4.70

Continued, values first:

pIC50 [1, 5]: ≥ 4.70
pIC50 [2, 6]: ≥ 4.70
SMILES: COc1ccc(Nc2nc(Nc3ccc(N4CCN(C(C)=O)CC4)cc3)ncc2F)cc1OC [compound 863]

pIC50 ([1]; H1299 (lung) cells): ≥ 4.70
pIC50 ([2]; A549 (lung) cells): ≥ 4.70
SMILES: CCCCn1ncc2ccc(Nc3ncc(F)c(Nc4ccc5c(c4)NC(=O)C(C)(C)O5)n3)cc21 [compound 1088]

pIC50 [1, 7]: ≥ 4.70
pIC50 [2, 8]: ≥ 4.70
SMILES: COc1cc(Nc2ncc(F)c(Nc3ccc4c(c3)NC(=O)C(C)(C)S4(=O)=O)n2)cc(OC)c1OC [compound 265]

pIC50 [1, 3]: ≥ 4.70
pIC50 [2, 4]: ≥ 4.70
SMILES: CC(C)Nc1nc(Nc2ccc(N3CCN(C)CC3)cc2)ncc1F [compound 215]

pIC50 [1, 9]: < 4.70
pIC50 [2, 10]: ≥ 4.70
SMILES: COc1cc(C)c(Nc2ncc(F)c(Nc3ccc4c(c3)NC(=O)[C@@H](C)O4)n2)cc1Cl [compound 1139]

pIC50 [1, 11]: ≥ 4.70
pIC50 [2, 12]: ≥ 4.70
SMILES: Oc1cccc(Nc2nc(Nc3cccc(-c4ncco4)c3)ncc2F)c1 [compound 885]

pIC50 [1, 11]: ≥ 4.70
pIC50 [2, 12]: ≥ 4.70
SMILES: COc1ccc(Nc2nc(Nc3cccc(-c4ncon4)c3)ncc2F)cc1OC [compound 886]

pIC50 [1, 5]: < 4.70
pIC50 [2, 6]: < 4.70
SMILES: Cc1ccc(Nc2ncc(F)c(Nc3ccc(C)cc3)n2)cc1 [compound 721]

pIC50 ([1]; Table 5, in vitro antiproliferation, H1299 (lung) cells): ≥ 4.70
pIC50 ([2]; Table 5, in vitro antiproliferation, A549 (lung) cells): ≥ 4.70
SMILES: COc1cc(Nc2ncc(F)c(Nc3ccc4c(c3)OC(F)(F)C(F)(F)O4)n2)cc(OC)c1 [compound 532]

pIC50 [1, 11]: ≥ 4.70
pIC50 [2, 12]: ≥ 4.70
SMILES: COc1ccc(Nc2ncc(F)c(Nc3ccc(C(N)=O)cc3)n2)cc1Cl [compound 1028]

pIC50 ([1]; H1299 (lung) cells): ≥ 4.70
pIC50 ([2]; A549 (lung) cells): ≥ 4.70
SMILES: CC1(C)Oc2ccc(Nc3nc(Nc4ccc5cnn(C(C)(C)CC6CC6)c5c4)ncc3F)cc2NC1=O [compound 1112]

pIC50 [1, 11]: < 4.70
pIC50 [2, 12]: < 4.70
SMILES: Cc1cc(N(C)c2nc(Nc3cccc(-c4cnco4)c3)ncc2F)cc(C)c1Cl [compound 914]

pIC50 ([1]; H1299 (lung) cells): ≥ 4.70
pIC50 ([2]; A549 (lung) cells): ≥ 4.70
SMILES: CC(C)(CC1CC1)n1ncc2ccc(Nc3ncc(F)c(Nc4ccc(Cl)c(Cl)c4)n3)cc21 [compound 1111]

pIC50 [1, 7]: ≥ 4.70
pIC50 [2, 8]: ≥ 4.70
SMILES: COc1ccc(Nc2ncc(F)c(Nc3ccc4c(c3)NC(=O)C(C)(C)S4(=O)=O)n2)cc1F [compound 287]

pIC50 [1, 3]: ≥ 4.70
pIC50 [2, 4]: ≥ 4.70
SMILES: CCOC(=O)N1CCC(Nc2nc(Nc3ccc(N4CCN(C)CC4)c(C)c3)ncc2F)CC1 [compound 188]
